Read-outs that look alike come from different tables or passages of the source.
How the values were obtained:
[1] = target: T1, M1 muscarinic receptor (Homo sapiens, UniProt P11229); assay: [3H]NMS competition binding, membranes from CHO cells expressing M1; conditions: competition with [3H]NMS, mean ± SD, three experiments, read-out: Binding affinity, negative logarithm of Ki (converted)
T1 construct: membranes
T1 sequence (P11229 1-460): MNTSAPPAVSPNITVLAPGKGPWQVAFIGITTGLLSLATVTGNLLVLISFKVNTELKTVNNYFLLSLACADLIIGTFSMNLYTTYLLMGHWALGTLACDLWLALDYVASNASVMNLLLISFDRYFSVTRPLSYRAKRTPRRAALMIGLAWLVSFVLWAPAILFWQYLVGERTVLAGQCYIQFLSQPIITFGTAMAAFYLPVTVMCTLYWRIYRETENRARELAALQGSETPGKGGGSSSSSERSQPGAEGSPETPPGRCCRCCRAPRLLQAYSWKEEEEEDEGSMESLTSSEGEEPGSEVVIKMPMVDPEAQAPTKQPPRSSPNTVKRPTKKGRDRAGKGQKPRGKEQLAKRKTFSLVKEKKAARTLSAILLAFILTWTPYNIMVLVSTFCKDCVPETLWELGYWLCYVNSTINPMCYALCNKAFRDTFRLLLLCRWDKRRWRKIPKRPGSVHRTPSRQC
Experimental: (§1) Cells were cultured as described previously by Randakova et al.[33]. […] The medium was supplemented with 5 mM butyrate for the last 24 h of culture to increase receptor expression. Cells were washed with (phosphate-buffered saline (PBS), mechanically harvested by scraper and centrifugated 1000 × g for 5 min. Cell pellets were kept at − 80 °C.
(§2) Membranes were prepared as described previously by Randakova et al.[33]. Cells harvested from twenty 100 mm petri dishes (CHO) or 30 ml of cell suspension (Sf9) were suspended in 20 ml of ice-cold incubation medium (100 mM NaCl, 20 mM Na-HEPES, 10 mM MgCl2, pH 7.4) supplemented with 10 mM EDTA and homogenized on ice by two 30‐s strokes using a Polytron homogenizer (Ultra-Turrax; Janke & Kunkel GmbH & Co. KG, IKA-Labortechnik, Staufen, Germany) with a 30 s pause between strokes. Cell homogenates were centrifuged for 5 min at 1000×g to remove whole cells and cell nuclei. The resulting supernatants were centrifuged for 30 min at 30,000×g. Pellets were suspended in a fresh incubation medium, incubated on ice for 30 min, and centrifuged again. The resulting membrane pellets were kept at − 80 °C until assayed within 10 weeks.
(§3) Non-specific binding was determined in the presence of 10 μM unlabelled atropine. Incubations were terminated by filtration through filtration plates multiscreen 96 well Harvest (Merck Millipore) using a Brandel cell harvester (Brandel, Gaithersburg, MD, USA). Filtration plates were dried in a microwave oven, and then 40 μl of liquid scintillator Rotiscint eco plus (Roth) was added. The filtration plates were counted in the Microbeta scintillation counter (PerkinElmer). […] The inhibition constant KI was calculated according to Eq. (2).
(§4) Inhibition constants KI were calculated according to Eq. (2).2 KI=IC50/1+D/KD where IC50 is calculated according to Eq.

[2] = target: T2, M2 muscarinic receptor (Homo sapiens, UniProt P08172); assay: [3H]NMS competition binding, membranes from CHO cells expressing M2
T2 construct: membranes
T2 sequence (P08172 1-466): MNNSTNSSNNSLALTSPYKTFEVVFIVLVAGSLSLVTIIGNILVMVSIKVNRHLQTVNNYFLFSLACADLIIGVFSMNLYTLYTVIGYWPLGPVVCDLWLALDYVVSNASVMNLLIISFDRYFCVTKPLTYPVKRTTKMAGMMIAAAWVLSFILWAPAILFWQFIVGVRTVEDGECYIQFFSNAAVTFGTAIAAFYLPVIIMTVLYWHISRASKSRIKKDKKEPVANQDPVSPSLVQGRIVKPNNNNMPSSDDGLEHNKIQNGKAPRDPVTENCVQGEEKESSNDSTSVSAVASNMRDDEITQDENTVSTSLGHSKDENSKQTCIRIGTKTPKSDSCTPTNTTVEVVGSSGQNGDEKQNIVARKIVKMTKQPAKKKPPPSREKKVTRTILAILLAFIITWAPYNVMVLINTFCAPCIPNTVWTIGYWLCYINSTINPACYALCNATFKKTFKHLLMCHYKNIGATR
Experimental: as §1, §2, §3, §4

[3] = target: T3, M3 muscarinic receptor (Homo sapiens, UniProt P20309); assay: [3H]NMS competition binding, membranes from CHO cells expressing M3; conditions: competition with [3H]NMS, mean ± SD, three experiments, read-out: Binding affinity, negative logarithm of Ki (converted)
T3 construct: membranes
Experimental: as §1, §2, §3, §4

[4] = target: T4, M4 muscarinic receptor (Homo sapiens, UniProt P08173); assay: [3H]NMS competition binding, membranes from CHO cells expressing M4
T4 construct: membranes
T4 sequence (P08173 1-479): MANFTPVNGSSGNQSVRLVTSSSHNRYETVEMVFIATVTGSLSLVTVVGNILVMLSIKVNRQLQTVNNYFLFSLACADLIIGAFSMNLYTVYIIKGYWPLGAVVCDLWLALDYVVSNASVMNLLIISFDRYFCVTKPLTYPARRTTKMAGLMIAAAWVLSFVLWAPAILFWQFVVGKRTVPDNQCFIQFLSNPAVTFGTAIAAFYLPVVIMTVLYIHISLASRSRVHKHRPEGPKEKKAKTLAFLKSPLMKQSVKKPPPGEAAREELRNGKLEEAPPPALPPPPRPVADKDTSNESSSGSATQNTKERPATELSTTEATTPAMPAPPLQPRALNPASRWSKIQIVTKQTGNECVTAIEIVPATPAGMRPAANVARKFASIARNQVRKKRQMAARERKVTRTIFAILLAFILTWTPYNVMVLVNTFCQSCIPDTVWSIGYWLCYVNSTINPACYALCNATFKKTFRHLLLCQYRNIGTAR
Experimental: as §1, §2, §3, §4

[5] = target: T5, M5 muscarinic receptor (Homo sapiens, UniProt P08912); assay: [3H]NMS competition binding, membranes from CHO cells expressing M5
T5 construct: membranes
T5 sequence (P08912 1-532): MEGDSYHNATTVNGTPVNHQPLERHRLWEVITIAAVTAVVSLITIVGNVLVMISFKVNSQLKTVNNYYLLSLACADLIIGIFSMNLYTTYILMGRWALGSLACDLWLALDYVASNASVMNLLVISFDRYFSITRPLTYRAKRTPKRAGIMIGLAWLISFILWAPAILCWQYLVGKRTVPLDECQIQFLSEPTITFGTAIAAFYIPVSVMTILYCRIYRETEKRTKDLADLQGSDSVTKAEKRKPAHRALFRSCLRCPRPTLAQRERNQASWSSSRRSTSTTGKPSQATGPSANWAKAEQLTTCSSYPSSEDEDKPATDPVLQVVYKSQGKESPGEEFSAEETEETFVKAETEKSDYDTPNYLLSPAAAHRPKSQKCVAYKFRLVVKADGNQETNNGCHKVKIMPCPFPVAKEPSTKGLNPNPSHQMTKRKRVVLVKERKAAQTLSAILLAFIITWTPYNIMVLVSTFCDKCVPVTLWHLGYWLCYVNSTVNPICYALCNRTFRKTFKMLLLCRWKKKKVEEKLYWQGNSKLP
Experimental: as §1, §2, §3, §4

[6] = target: T6, M2 receptor (Homo sapiens, UniProt P08172); assay: Agonist-stimulated GTPγ[35S] binding to Sf9 membranes expressing M2 receptor and individual Gαi/o; assay type: biochemical; design: host or cells: Sf9 insect cells, baculovirus (pFastBac1 / Bac-to-Bac); membranes; conditions: for Activation of individual Gi/o Gα types: M2 with GαoA, GαoB, Gαi1, Gαi2, Gαi3
T6 sequence (P08172 1-466): T2 sequence (P08172 1-466)
Experimental: Baculoviral stocks for expression of M2 receptor and individual Gα-subunits of Gi/o G-proteins (GαoA, GαoB, Gαi1, Gαi2, Gαi3) in SF9 cells were generated according to Bac-to-Bac® baculovirus expression system—user guide (https://assets.thermofisher.com/TFS-Assets/LSG/manuals/MAN0000414_BactoBacExpressionSystem_UG.pdf). […] After 96 h at 27 °C, baculoviral viral particles released into the medium were harvested. After centrifugation at 500×g for 10 min to remove detached cells and cell debris, baculoviral stock P0 was ready for amplification. Suspension of Sf9 cells at density 2 × 10^6 cells per ml was infected by baculoviral stock P0 in ratio 1:1000 and after 72 h of growth (in a shaking incubator at 135 rpm and 27 °C) the amplified baculoviral stock P1 was harvested. The cell suspension was centrifugated at 500×g for 10 min to remove cells and cell debris and the supernatant containing a high level of baculoviral particles P1 was collected. FBS to the concentration of 0.5% was added and the stock was stored at 4 °C, protected from light for up to 6 months. For the quantification of baculoviral particles, a plaque assay was used.
Cells were grown in suspension culture in 250 ml Erlenmeyer flasks in Sf-900™ III serum-free medium in an aerated shaking incubator at 27 °C and 135 rpm. Cells were maintained at the density of 1–4 × 10^6 cells per ml. Sf9 cells at the density 2 × 10^6 were co-infected with baculoviral stock for the M2 receptor and a particular Gi/o Gα in the ratio (1:10). […] Infected cells were harvested by centrifugation 1000×g for 10 min. Cell pellets were kept at − 80 °C.
as §2
Agonist stimulated GTPγ[^35S]binding to membranes from Sf9 cells expressing the M2 receptors in a combination with α-subunit of given Gi/o type (GαoA, GαoB, Gαi1, Gαi2, Gαi3) was measured in 96-well plates in a final volume of 200 µl of incubation medium described above containing 500 pM of GTPγ[^35S] […] Nonspecific binding was determined in the presence of 1 µM nonlabelled GTPγS. Incubations were terminated and processed as described above. Parameters of functional response were calculated according to Eq. (3) after subtraction of non-specific binding.
The basal value of GTPγ[^35S] binding was determined in the absence of the agonist. After subtraction of non-specific binding determined in the presence of 10 μM nonlabelled GTPγS, GTPγ[^35S]binding was divided by the basal value and expressed as folds over basal. […] Then Eq. (3) was fitted to the data using GraphPad. Obtained EMAX and EC50 values were used to calculate RAi values using Eq. (7). To determine τ and KA of the functional responses system EMAX was determined as described earlier. Basal values were subtracted and functional responses were expressed as fractions of system EMAX. […] Obtained τ and KA values were used to calculate the bias factor according to Eq. (8), see below, for each experiment.
Equation (4) was fitted to data by the two-step procedure described earlier[61]

T3 sequence (P20309 whole entry): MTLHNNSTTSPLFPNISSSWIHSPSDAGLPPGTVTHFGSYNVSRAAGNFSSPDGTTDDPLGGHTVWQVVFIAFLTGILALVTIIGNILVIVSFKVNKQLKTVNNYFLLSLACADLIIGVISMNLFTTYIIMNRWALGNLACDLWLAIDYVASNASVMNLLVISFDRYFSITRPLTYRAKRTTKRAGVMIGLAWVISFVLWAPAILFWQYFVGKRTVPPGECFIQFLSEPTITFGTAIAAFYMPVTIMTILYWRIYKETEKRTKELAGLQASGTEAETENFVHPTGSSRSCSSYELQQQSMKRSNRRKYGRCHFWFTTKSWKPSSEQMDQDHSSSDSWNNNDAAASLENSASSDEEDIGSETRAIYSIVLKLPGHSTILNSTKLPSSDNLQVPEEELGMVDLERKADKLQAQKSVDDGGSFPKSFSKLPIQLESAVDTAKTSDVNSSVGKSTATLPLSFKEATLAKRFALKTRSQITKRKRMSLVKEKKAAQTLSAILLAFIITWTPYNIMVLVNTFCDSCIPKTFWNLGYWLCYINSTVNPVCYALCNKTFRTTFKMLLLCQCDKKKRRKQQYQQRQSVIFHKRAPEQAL

Q: Which results are given for `c1csc(CN2CCOCC2)c1` [JB-12-1]?
A: Ki [1]: > 1000 µM; Ki ([2]; M2, competition with [3H]NMS, mean ± SD, three experiments, read-out: Binding affinity, negative logarithm of Ki (converted)): 302 µM; Ki [3]: > 1000 µM; Ki ([4]; M4, competition with [3H]NMS, mean ± SD, three experiments, read-out: Binding affinity, negative logarithm of Ki (converted)): > 1000 µM; Ki ([5]; M5, competition with [3H]NMS, mean ± SD, three experiments, read-out: Binding affinity, negative logarithm of Ki (converted)): > 1000 µM

Q: How did the Ki [1] turn out when `COC(=O)C1=CCC[N+](C)(Cc2cccs2)C1` (centres unmarked) [JB-13-2] was run?
A: 42.7 µM

Q: What about the Ki [2] of the same molecule?
A: 9.55 µM

Q: What about the Ki [3] of the same molecule?
A: 126 µM

Q: And the Ki [4]?
A: 22.9 µM

Q: And the Ki [5]?
A: 97.7 µM

Q: Which results are given for `C[N+](C)(C)CC#CCOC(=O)Nc1cccc(Cl)c1.[Cl-]` [Mc-Neil A343, reference compound]?
A: Bias according to RAi, Gαi2 vs GαoB ([6]; M2, relative to carbachol): 2.3 ×; Activation of individual Gi/o Gα types [6]: activated all Gi/o Gα

Q: `Clc1ccc2c(c1)N=C(N1CCNCC1)c1ccccc1N2` [NDMC, reference compound] was tested. Which “Activation of individual Gi/o Gα types” value [6] did it give?
A: activated all Gi/o Gα

Q: Which results are given for `C[N+](C)(C)CC#CCOC1=NOCC1` [iperoxo, reference compound]?
A: Bias according to RAi, Gαi3 vs GαoA ([6]; M2, relative to carbachol): 2.5 times; Activation of individual Gi/o Gα types [6]: activated all Gi/o Gα

Q: Which results are given for `O=C1CCCN1CC#CCN1CCCC1` [oxotremorine, reference compound]?
A: Bias according to RAi, Gαi2 vs Gαi3 ([6]; M2, relative to carbachol): 2 ×; Activation of individual Gi/o Gα types [6]: activated all Gi/o Gα

— paper PMC11053168, “Agonist-selective activation of individual G-proteins by muscarinic receptors” (Scientific Reports, 2024)
